These are literature values, as cited in article PMC8453943 (Clinical Pharmacology in Drug Development, 2021).

The subject of this data set is EGFR. The following applies: NSCLC with EGFR exon 20 insertion mutations; cited from earlier work.

In the case of `C#Cc1cccc(Nc2ncnc3cc(OCCOC)c(OCCOC)cc23)c1` [erlotinib], the Median progression-free survival result is “≈ 2 months”.

On to `C=CC(=O)Nc1cc(Nc2nccc(-c3cn(C)c4ccccc34)n2)c(OC)cc1N(C)CCN(C)C` [osimertinib], for which the Median progression-free survival result is “≈ 2 months”.
